Converted amounts (≈) assume the structure as drawn.
Experiments:
[1] = test system: cells; conditions: cited from earlier work
[2] = test system: Bovine capillary endothelial (BCE) cells; assay: inhibition of bovine capillary endothelial cell proliferation (BCE), compared to NIH3T3 fibroblasts; format: cell-based; conditions: for less active (inhibition of endothelial cell proliferation): relative to cytochalasin E
Description: (§1) Bovine capillary endothelial (BCE) cells and Swiss mouse embryo fibroblast cells (NIH3T3) were isolated as previously described (Folkman, , et al., Proc. Nat. Acad. Sci USA., 76:5217-21(1979)) and maintained in DMEM supplemented with 10% heat-inactivated bovine calf serum (BCS), antibiotics, and 3 ng/ml recombinant human bFGF (Scios Nova, Mountainview,Calif.). Monolayers of the cells growing in 6-well plates were dispersed in a 0.05% trypsin solution. The cells were re-suspended with DMEM containing 10% BCS. Approximately 12,500 cells in 0.5 ml were added to each well of gelatinized 24-well tissue culture plates and incubated at 37° C. (in 10% CO2) for 24 hours. The medium was replaced with […] of fresh DMEM containing 5% BCS. Samples of cytochalasin E, cytochalasin A, and cytochalasin H were added to each well in triplicate. After 30 minutes of incubation, bFGF was added to a final concentration of 1 ng/ml. After 72 hours of incubation, cells were trypsinized, re-suspended in Hematall (Fisher Scientific, Pittsburg, Pa.) and counted with a Coulter counter.
FIG. 2 is a graph showing the inhibition of bovine capillary endothelial cell proliferation (BCE) (squares) compared to Swiss mouse embryo fibroblast cells (NIH3T3). […] The ordinate measures drug concentration in grams per milliliter.

[3] = format: in vivo; conditions: mice; Table 1
Description: (§2) The neovascularization experiment described in Example 2 was repeated using the corneal micropockets in mice. The compounds tested were cytochalasin E, astaphiatin, arglabin, epoxycytochalasin-H, ozonolyzed cytochalasin-E, and precursor cytochalasin-E. The results of these compound's ability to inhibit angiogenesis are shown in Table 1.

[4] = test system: corneal neovascularization (corneal micropockets); assay: neovascularization experiment using corneal micropockets in mice; format: in vivo; conditions: mouse corneal micropockets; Table 1
Description: (§3) Pellets for implantation into rabbit corneas were made by mixing 110 μl of saline containing 12 μg of recombinant bFGF (Takeda Pharmaceuticals-Japan) with 40 mg of sucralfate (Bukh Meditec-Denmark); this suspension was added to 80 μl of 12% hydron (Interferon Sciences) in ethanol. 10 μl aliquots of this mixture was then pipetted onto teflon pegs and allowed to dry producing approximately 17 pellets. A pellet was implanted into corneal micropockets of each eye of an anesthetized female New Zealand white rabbit, 2 mm from the limbus followed by topical application of erythromycin ointment onto the surface of the cornea. The animals were fed daily from 2 days post-implantation by gastric lavage with cytochalasin E or the aldehyde methyl ester derivative of cytochalasin E suspended in 0.5% carboxymethyl cellulose or 0.5% carboxymethyl cellulose alone. The animals were examined with a slit lamp every other day in a masked manner by the same corneal specialist. The area of corneal neovascularization was determined by measuring with a reticule the vessel length (L) from the limbus and the number of clock hours (C) of limbus involved. A formula was used to determine the area of a circular band segment: C/12*3.1416 [r^2 -(r-L)^2 ] where r=6 mm the measured radius of the rabbit cornea.
as §2

[5] = test system: tumor-induced angiogenesis in mouse dermis; conditions: cited from earlier work
[6] = test system: tumor growth and metastases; conditions: cited from earlier work
[7] = test system: vascular endothelial cell; conditions: cited from earlier work
[8] = test system: tumors cells; conditions: cited from earlier work
[9] = test system: cells; conditions: cited from earlier work; remark: listed apart in the source
[10] = test system: Bovine capillary endothelial (BCE) cells; assay: inhibition of bovine capillary endothelial cell proliferation (BCE), cytochalasin E vs epoxycytochalasin J; format: cell-based; conditions: compared with cytochalasin E; FIG. 3
Description: as §1, with “(BCE)” for “(BCE) cells and Swiss mouse embryo fibroblast cells (NIH3T3)”, “76:5217-21 (1979))” for “76:5217-21(1979))”, “Mountainview, Calif.).” for “Mountainview,Calif.).”, “E” for “E, cytochalasin A,”, “epoxycytochalasin J” for “cytochalasin H”
The ordinate measures drug concentration in grams per milliliter.

[11] = test system: Lewis lung carcinoma; assay: Lewis lung experiment, inhibition of tumor growth (Example 6); format: in vivo, mice (C57BI6/J); conditions: 2.0 mg/kg qd (printed 'od' for methanolyzed compound)
Description: (§4) Syngeneic C57BI6/J six-week-old male mice were injected (subcutaneous dorsum) with 1×10^6 tumor cells. Visible tumors first appeared after 3-4 days. When tumors were approximately 1500 mm^3 in size, mice were randomized into two groups. The primary tumor was completely excised in the first group and left intact in the second group after a sham operation. Although tumors from 500 mm^3 to 3000 mm^3 inhibited growth of metastases, 1500 mm^3 was the largest primary tumor that could be safely resected with high survival and no local recurrence.
The Lewis lung experiment of Example 5 was repeated using cytochalasin E and methanolyzed cytochalasin E. The results of this experiment are presented in the table below.

[12] = test system: Lewis lung carcinoma; assay: Lewis lung carcinoma tumor growth (Example 5); format: in vivo, mice (C57BI6/J); conditions: 2 mg/kg/day
Description: as §4
This experimental model gave reproducible data and the experiment described is reproducible. This tumor is labeled "Lewis lung carcinoma--low metastatic" (LLC-Low).

[13] = test system: basic fibroblast growth factor (bFGF) driven corneal neovascularization; assay: rabbit cornea assay, bFGF driven corneal neovascularization; format: in vivo, rabbit (New Zealand white); conditions: 2 mg/kg/day, text says subcutaneously administered (method: gastric lavage)
Description: as §3

Compound: C=C1C(C)C2C(Cc3ccccc3)NC(=O)C23C(OC(C)=O)/C=C/C(C)(O)CC(C)C/C=C/C3C1O (stereo not drawn) [cytochalasin H]
- disaggregation of cells [1]: produces disaggregation of cells
- less active (inhibition of endothelial cell proliferation) [2]: 1000 fold

Compound: CC(=O)O[C@@H]1/C=C/[C@](C)(O)C[C@@H](C)C/C=C/[C@H]2[C@@H]3O[C@]3(C)[C@@H](C)[C@H]3[C@H](Cc4ccccc4)NC(=O)[C@@]312 [Epoxycytochalasin-H]
- % Weight Loss [3]: 2.46%
- % Inhibition (ability to inhibit angiogenesis) [4]: 27.35%

Compound: interferon alpha
- inhibition of tumor-induced angiogenesis [5]: inhibit tumor-induced angiogenesis

Compound: C=C1C(=O)OC2C1CCC(=C)C1CC3OC3(C)C12 (stereo not drawn) [Astaphiatin]
- % Weight Loss [3]: 6.92%
- % Inhibition (ability to inhibit angiogenesis) [4]: 33.56%

Compound: C=C1C(C)C2C(Cc3ccccc3)NC(=O)C23OC(=O)/C=C/C(=O)CCCC(C)C/C=C/C3C1O (stereo not drawn) [cytochalasin A]
- less active (inhibition of endothelial cell proliferation) [2]: 1000 fold

Compound: CO[C@@H]1[C@H](OC(=O)NC(=O)CCl)CC[C@]2(CO2)[C@H]1[C@@]1(C)O[C@@H]1CC=C(C)C [AGM-1470]
- inhibition of tumor growth and metastases in vivo [6]: inhibits tumor growth and metastases in vivo
- activity in inhibiting tumor cell proliferation in vitro ([7]; compared with inhibition in vivo): much less active
- half-maximal inhibition of vascular endothelial cell proliferation at lower concentration than tumor cell proliferation ([7]; endothelial vs tumor cell proliferation): 4 logs

Compound: bFGF: basic fibroblast growth factor (bFGF)
- mitogen for the tumor cells in vitro [8]: not a mitogen

Compound: CC1C2C(Cc3ccccc3)NC(=O)C2(O)C(CO)C2OC12C (stereo not drawn) [Ozonolyzed Cytochalasin-E]
- % Weight Loss [3]: 4.00%
- % Inhibition (ability to inhibit angiogenesis) [4]: 20.00%

Compound: C=C1C(C)C2C(Cc3ccccc3)NC(=O)C23OC(=O)/C=C/C(O)CCCC(C)C/C=C/C3C1O (single isomer, unassigned) [cytochalasin B]
- changes in cell structure [9]: a number of morphological changes in cell structure

Compound: C[C@H]1C/C=C/[C@H]2[C@@H]3O[C@]3(C)[C@@H](C)[C@@H]3[C@H](Cc4ccccc4)NC(=O)[C@]32[C@H](O)/C=C/[C@](C)(O)C1 [epoxycytochalasin J]
- effectiveness as inhibitor of bovine capillary endothelial cell proliferation [10]: even more effective inhibitor

Compound: CC1C/C=C/C2C3OC3(C)C(C)C3C(Cc4ccccc4)NC(=O)C23OC(=O)O/C=C/C(C)(O)C1=O [cytochalasin E, (6S,7S,16R,18R)-6,7-epoxy-18-hydroxy-16-methyl-10-phenyl-21 ,23-dioxa-[13]cytochalasa-13(E), 19(E)-diene-1,17,22-trione]
- Inhibition of Tumor Growth, T/C [11]: 0.28
- % Weight Loss [3]: 0.00%
- inhibited tumor growth [12]: 74%
- inhibition of bFGF driven corneal neovascularization [13]: 50%
- % Inhibition (ability to inhibit angiogenesis) [4]: 45.00%
- IC50 ([2]; Bos taurus, Endothelial cell, bFGF 1 ng/ml, 72 hours): 0.002 ng/mL (≈ 0.00404 nM)

Compound: C=C1C(=O)O[C@@H]2[C@H]3C(C)=CC[C@@]34O[C@@]4(C)CC[C@@H]12 [Arglabin]
- % Weight Loss [3]: 2.69%
- % Inhibition (ability to inhibit angiogenesis) [4]: 22.72%

Reference: patent publication US6242481A, “Methods for the inhibition of angiogenesis with arglabin” (priority 1999, dated 2001)
